How the values were obtained:
[1] = test system: Rice plants; experiment: Paddy herbicidal activity test, phytotoxicity to transplanted rice; assay type: in vivo; details: rice transplanted at 2.0 leaf stage, 30 days
Procedure: Rice paddy soil was filled into a 1/10000 are pot followed by the addition of suitable amounts of water and chemical fertilizer, kneading, seeding with Echinochloa crus-galli, Monochoria vaginalis and Scirpus juncoides and maintaining in an irrigated state at a water depth of 3 cm.
Wettable powder of Target Compound (I) shown in Table 1 prepared in compliance with the preparation examples were diluted with a suitable amount of water, rice plants in the 2.0 leaf stage were transplanted during 3.5 leaf stage of Echinochloa crus-galli, and treated by dropping in chemical in the prescribed amount per are using a pipette.
(§1) After treating for 30 days in a glass greenhouse at an average atmospheric temperature of 30° C., the herbicidal efficacy thereof was investigated.
Evaluation of herbicidal efficacy was carried out by comparing growth inhibition rate (%) with an untreated group, while evaluation of phytotoxicity was carried out by comparing growth inhibition rate (%) with the state of a complete eradication group, and were evaluated at 11 levels indicated below.

[2] = test system: Digitaria ciliaris; experiment: Weed foliar treatment test; assay type: in vivo; details: foliar spray at 1.0 to 2.0 leaf stage of Digitaria ciliaris, 3 weeks
Procedure: (§2) Soil was filled into a 1/6000 are pot followed by seeding with Digitaria ciliaris, Chenopodium album and Amaranthus retroflexus, covering with soil, and cultivating in a glass greenhouse at an average atmospheric temperature of 25° C.
(§3) Wettable powder of Target Compound (I) shown in Table 1 prepared in compliance with the preparation examples were diluted with water to the prescribed amount of chemical and uniformly sprayed onto the weeds using 15 liters of sprayed water per are when Digitaria ciliaris had grown to the 1.0 to 2.0 leaf stage.
(§4) After treating for 3 weeks in a glass greenhouse at an average atmospheric temperature of 25° C., the herbicidal efficacy thereof was investigated.
(§5) Evaluation of herbicidal efficacy was carried out in the same manner as the above-mentioned Test Example 1.

[3] = test system: Chenopodium album; experiment: Weed foliar treatment test; assay type: in vivo; details: foliar spray, 3 weeks
Procedure: as §2, §3, §4, §5

[4] = test system: Amaranthus retroflexus; experiment: Weed foliar treatment test; assay type: in vivo; details: foliar spray, 3 weeks
Procedure: as §2, §3, §4, §5

[5] = test system: Monochoria vaginalis; experiment: Paddy herbicidal activity test; assay type: in vivo; details: irrigated paddy pot, 30 days
In short: (§6)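 Flooded paddy-soil pots (3 cm water) were sown with Echinochloa, Monochoria and Scirpus, and rice at the 2.0-leaf stage was transplanted. Diluted wettable powder was dripped in per are at weed 3.5-leaf stage. After 30 days in a greenhouse (~30 °C), growth inhibition versus untreated plants was scored on an 11-level scale.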

[6] = test system: Scirpus juncoides; experiment: Paddy herbicidal activity test; assay type: in vivo; details: irrigated paddy pot, 30 days
In short: as §6

[7] = test system: Echinochloa crus-galli; experiment: Paddy herbicidal activity test; assay type: in vivo; details: irrigated paddy pot, treated at 3.5 leaf stage of Echinochloa crus-galli, 30 days
In short: as §6

[8] = test system: Digitaria ciliaris; experiment: Farming soil treatment test; assay type: in vivo; details: soil surface spray prior to weed growth, 30 days
Procedure: (§7) Field soil was filled into a 1/6000 are pot followed by seeding with Digitaria ciliaris, Chenopodium album and Amaranthus retroflexus and covering with soil.
(§8) Wettable powder of compounds of formula (I) shown in Table 1 prepared in compliance with the preparation examples were diluted with water to the prescribed amount of chemical and uniformly sprayed onto each soil surface layer using 10 liters of sprayed water per are prior to weed growth following seeding.
as §1
(§9) Evaluation of herbicidal efficacy is carried out in the same manner as the above-mentioned Test Example 1.

[9] = test system: Chenopodium album; experiment: Farming soil treatment test; assay type: in vivo; details: soil surface spray prior to weed growth, 30 days
Procedure: as §7, §8, §1, §9

[10] = test system: Amaranthus retroflexus; experiment: Farming soil treatment test; assay type: in vivo; details: soil surface spray prior to weed growth, 30 days
Procedure: as §7, §8, §1, §9

Compound | Rice plants phytotoxicity (growth inhibition level) ([1]; 1g a.i./10a) | Rice plants phytotoxicity (growth inhibition level) ([1]; 5g a.i./10a) | Digitaria ciliaris herbicidal efficacy (growth inhibition level) ([2]; 5g a.i./10a) | Digitaria ciliaris herbicidal efficacy (growth inhibition level) ([2]; 10g a.i./10a) | Chenopodium album herbicidal efficacy (growth inhibition level) ([3]; 5g a.i./10a) | Chenopodium album herbicidal efficacy (growth inhibition level) ([3]; 10g a.i./10a) | Amaranthus retroflexus herbicidal efficacy (growth inhibition level) ([4]; 5g a.i./10a) | Amaranthus retroflexus herbicidal efficacy (growth inhibition level) ([4]; 10g a.i./10a) | Monochoria vaginalis herbicidal efficacy (growth inhibition level) ([5]; 1g a.i./10a) | Monochoria vaginalis herbicidal efficacy (growth inhibition level) ([5]; 5g a.i./10a) | Scirpus juncoides herbicidal efficacy (growth inhibition level) ([6]; 1g a.i./10a) | Scirpus juncoides herbicidal efficacy (growth inhibition level) ([6]; 5g a.i./10a) | Echinochloa crus-galli herbicidal efficacy (growth inhibition level) ([7]; 1g a.i./10a) | Echinochloa crus-galli herbicidal efficacy (growth inhibition level) ([7]; 5g a.i./10a) | Digitaria ciliaris herbicidal efficacy (growth inhibition level) ([8]; 5g a.i./10a) | Digitaria ciliaris herbicidal efficacy (growth inhibition level) ([8]; 10g a.i./10a) | Chenopodium album herbicidal efficacy (growth inhibition level) ([9]; 5g a.i./10a) | Chenopodium album herbicidal efficacy (growth inhibition level) ([9]; 10g a.i./10a) | Amaranthus retroflexus herbicidal efficacy (growth inhibition level) ([10]; 5g a.i./10a) | Amaranthus retroflexus herbicidal efficacy (growth inhibition level) ([10]; 10g a.i./10a) | further results
C#CCNc1c(C#N)cnn1-c1nn2c(c1Cl)CCCC2 [Control agent 4.85, 4.156, reference compound] | 2 (2: 20% to less than 30%) | 2 (2: 20% to less than 30%) | 3 (3: 30% to less than 40%) | 5 (5: 50% to less than 60%) | 5 (5: 50% to less than 60%) | 6 (6: 60% to less than 70%) | 4 (4: 40% to less than 50%) | 6 (6: 60% to less than 70%) | 1 (1: 10% to less than 20%) | 3 (3: 30% to less than 40%) | 0 (0 (exponent): 0% to less than 10% (growth inhibition rate)) | 1 (1: 10% to less than 20%) | 2 (2: 20% to less than 30%) | 3 (3: 30% to less than 40%) | 3 (3: 30% to less than 40%) | 4 (4: 40% to less than 50%) | 4 (4: 40% to less than 50%) | 5 (5: 50% to less than 60%) | 3 (3: 30% to less than 40%) | 6 (6: 60% to less than 70%) | 
C=C(C)CNc1c(C#N)cnn1-c1nn2c(c1Cl)CCCC2 [Compound 1, 1-(3-chloro-4,5,6,7-tetrahydropyrazolo[1,5-a]pyridin-2-yl)-5-(2-methylprop-2-enylamino)pyrazole-4-carbonitrile] | 0 (0 (exponent): 0% to less than 10% (growth inhibition rate)) | 0 (0 (exponent): 0% to less than 10% (growth inhibition rate)) |  |  |  |  |  |  | 9 (9: 90% to less than 100%) | 9 (9: 90% to less than 100%) | 7 (7: 70% to less than 80%) | 8 (8: 80% to less than 90%) | 8 (8: 80% to less than 90%) | 9 (9: 90% to less than 100%) |  |  |  |  |  |  | melting point: 97 to 98 °C
C=CCN(CC)c1c(C#N)cnn1-c1nn2c(c1Cl)CCCC2 [Control agent 4.75, reference compound] | 0 (0 (exponent): 0% to less than 10% (growth inhibition rate)) | 1 (1: 10% to less than 20%) | 4 (4: 40% to less than 50%) | 5 (5: 50% to less than 60%) | 6 (6: 60% to less than 70%) | 7 (7: 70% to less than 80%) | 5 (5: 50% to less than 60%) | 7 (7: 70% to less than 80%) | 4 (4: 40% to less than 50%) | 5 (5: 50% to less than 60%) | 2 (2: 20% to less than 30%) | 2 (2: 20% to less than 30%) | 3 (3: 30% to less than 40%) | 4 (4: 40% to less than 50%) | 3 (3: 30% to less than 40%) | 4 (4: 40% to less than 50%) | 5 (5: 50% to less than 60%) | 6 (6: 60% to less than 70%) | 6 (6: 60% to less than 70%) | 6 (6: 60% to less than 70%) | 
C=CCNc1c(C#N)cnn1-c1nn2c(c1Cl)CCCC2 [Control agent 4.59, reference compound] | 1 (1: 10% to less than 20%) | 2 (2: 20% to less than 30%) | 4 (4: 40% to less than 50%) | 6 (6: 60% to less than 70%) | 6 (6: 60% to less than 70%) | 7 (7: 70% to less than 80%) | 6 (6: 60% to less than 70%) | 7 (7: 70% to less than 80%) | 2 (2: 20% to less than 30%) | 4 (4: 40% to less than 50%) | 2 (2: 20% to less than 30%) | 4 (4: 40% to less than 50%) | 2 (2: 20% to less than 30%) | 5 (5: 50% to less than 60%) | 5 (5: 50% to less than 60%) | 6 (6: 60% to less than 70%) | 5 (5: 50% to less than 60%) | 6 (6: 60% to less than 70%) | 5 (5: 50% to less than 60%) | 6 (6: 60% to less than 70%) | 
C=C(Cl)CN(C(=O)C(F)(F)F)c1c(C#N)cnn1-c1nn2c(c1Cl)CCCC2 [Compound 3, (N-1-(3-chloro-4,5,6,7-tetrahydropyrazolo[1,5-a]pyridin-2-yl)-4-cyanopyrazol-5-yl)-N-(2-chloroprop-2-enyl)-2,2,2-trifluoroacetamide] | 0 (0 (exponent): 0% to less than 10% (growth inhibition rate)) | 0 (0 (exponent): 0% to less than 10% (growth inhibition rate)) | 10 (10: 100%) | 10 (10: 100%) | 10 (10: 100%) | 10 (10: 100%) | 10 (10: 100%) | 10 (10: 100%) | 9 (9: 90% to less than 100%) | 9 (9: 90% to less than 100%) | 7 (7: 70% to less than 80%) | 8 (8: 80% to less than 90%) | 9 (9: 90% to less than 100%) | 10 (10: 100%) | 10 (10: 100%) | 10 (10: 100%) | 10 (10: 100%) | 10 (10: 100%) | 10 (10: 100%) | 10 (10: 100%) | 

— patent US9593122B2, “Substituted pyrazolylpyrazole derivative and use of same as herbicide” (KYOYU AGRI CO., LTD., priority 2013, dated 2017)
